Assay results reported in patent US12581252B2, “Substituted pyrrolo[3,4-b]pyridines as PI3K-α inhibitors” (Relay Therapeutics, Inc., priority 2020, dated 2026).

Target: H1047R PIK3CA enzyme (Homo sapiens, UniProt P42336, H1047R)
Assay: ADP-Glo Biochemical PIK3CA Kinase Assay

Chain of H1047R PIK3CA enzyme (P42336 whole entry H1047R): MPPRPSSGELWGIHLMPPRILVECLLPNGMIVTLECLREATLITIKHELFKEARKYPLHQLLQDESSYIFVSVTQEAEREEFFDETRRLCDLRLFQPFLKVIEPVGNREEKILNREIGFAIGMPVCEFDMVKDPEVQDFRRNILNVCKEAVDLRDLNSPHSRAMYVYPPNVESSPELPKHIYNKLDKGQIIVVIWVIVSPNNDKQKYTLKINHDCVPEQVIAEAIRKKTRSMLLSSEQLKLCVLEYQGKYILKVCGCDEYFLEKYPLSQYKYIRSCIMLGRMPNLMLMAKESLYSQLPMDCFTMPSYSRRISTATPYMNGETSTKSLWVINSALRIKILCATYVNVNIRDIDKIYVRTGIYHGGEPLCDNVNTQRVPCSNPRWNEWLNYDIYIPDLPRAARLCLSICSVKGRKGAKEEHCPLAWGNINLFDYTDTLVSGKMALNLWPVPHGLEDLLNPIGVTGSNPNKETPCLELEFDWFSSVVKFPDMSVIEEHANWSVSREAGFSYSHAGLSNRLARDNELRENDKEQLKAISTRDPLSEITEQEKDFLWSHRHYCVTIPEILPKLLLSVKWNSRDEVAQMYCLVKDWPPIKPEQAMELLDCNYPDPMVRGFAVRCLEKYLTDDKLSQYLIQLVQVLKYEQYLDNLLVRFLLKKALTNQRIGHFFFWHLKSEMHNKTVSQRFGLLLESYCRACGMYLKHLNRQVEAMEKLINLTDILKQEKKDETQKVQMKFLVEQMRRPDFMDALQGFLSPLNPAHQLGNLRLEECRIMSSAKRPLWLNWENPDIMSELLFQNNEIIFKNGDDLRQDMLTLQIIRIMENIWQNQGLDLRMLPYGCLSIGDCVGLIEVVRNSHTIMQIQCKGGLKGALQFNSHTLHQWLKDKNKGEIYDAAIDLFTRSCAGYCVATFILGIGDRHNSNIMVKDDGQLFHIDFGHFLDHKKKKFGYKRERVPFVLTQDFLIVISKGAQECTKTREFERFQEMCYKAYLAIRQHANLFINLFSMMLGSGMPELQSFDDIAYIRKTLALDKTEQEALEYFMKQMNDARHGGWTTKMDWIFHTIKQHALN
Chain of H1047R PIK3CA enzyme (P27986 whole entry partner): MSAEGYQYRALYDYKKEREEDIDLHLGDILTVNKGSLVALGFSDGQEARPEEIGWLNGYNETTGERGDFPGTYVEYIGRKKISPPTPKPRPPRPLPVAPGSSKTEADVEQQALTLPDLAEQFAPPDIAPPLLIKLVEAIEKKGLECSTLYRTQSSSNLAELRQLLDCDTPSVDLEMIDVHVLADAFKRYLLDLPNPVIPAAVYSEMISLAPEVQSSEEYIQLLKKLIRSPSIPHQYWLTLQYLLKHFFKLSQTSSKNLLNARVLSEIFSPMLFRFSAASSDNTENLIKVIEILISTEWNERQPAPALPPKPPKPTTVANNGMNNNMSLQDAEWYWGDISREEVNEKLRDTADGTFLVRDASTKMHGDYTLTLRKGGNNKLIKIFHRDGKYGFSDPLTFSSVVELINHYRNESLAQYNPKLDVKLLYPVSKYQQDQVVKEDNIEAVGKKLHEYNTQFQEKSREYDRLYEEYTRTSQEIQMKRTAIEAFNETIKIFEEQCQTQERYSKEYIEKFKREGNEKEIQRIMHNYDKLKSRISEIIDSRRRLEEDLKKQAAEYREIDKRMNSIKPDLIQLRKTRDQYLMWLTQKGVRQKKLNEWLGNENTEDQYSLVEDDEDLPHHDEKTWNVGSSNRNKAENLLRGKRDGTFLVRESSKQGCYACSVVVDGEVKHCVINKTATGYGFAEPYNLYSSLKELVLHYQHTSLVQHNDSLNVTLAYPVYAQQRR

SMILES: N#Cc1cnc2ncc(-c3cc(NC(=O)c4cc(F)cc(C(F)(F)F)c4)c4c(c3)C(=O)NC4c3cc(F)ccc3Cl)cn12 (stereo not shown) [Compound I-1796]
- IC50: ≤ 100 nM

SMILES: N#Cc1cnc2c(F)cc(-c3cc(NC(=O)c4cc(F)cc(C(F)(F)F)c4)c4c(c3)C(=O)NC4c3cc(F)ccc3Cl)cn12 (stereo not shown) [Compound I-1797]
- IC50: ≤ 100 nM

SMILES: N#Cc1cnn2ccc(-c3cc(NC(=O)c4cc(F)cc(C(F)(F)F)c4)c4c(c3)C(=O)N[C@@H]4c3cc(F)ccc3Cl)cc12 [Compound I-1798]
- IC50: 1000 to 10000 nM

SMILES: N#Cc1cnn2ccc(-c3cc(NC(=O)c4cc(F)cc(C(F)(F)F)c4)c4c(c3)C(=O)N[C@H]4c3cc(F)ccc3Cl)cc12 [Compound I-1799]
- IC50: ≤ 100 nM

SMILES: N#CC1(n2cc(-c3cc(NC(=O)c4cc(F)cc(C(F)(F)F)c4)c4c(c3)C(=O)NC4c3cc(F)ccc3Cl)cn2)CC1 (stereo not shown) [Compound I-1800]
- IC50: ≤ 100 nM

SMILES: N#Cc1cc(-c2ccc3ncnn3c2)cc2c1C(c1cc(F)ccc1Cl)NC2=O (stereo not shown) [Compound I-1801]
- IC50: 1000 to 10000 nM

SMILES: O=C(Nc1cc(-c2ccc3ncnn3c2)c(-c2ccc3ncnn3c2)c2c1C(c1cc(F)ccc1Cl)NC2=O)c1cc(F)cc(C(F)(F)F)c1 (stereo not shown) [Compound I-1802]
- IC50: 100 to 500 nM

SMILES: O=C1NC(c2cc(F)ccc2Cl)c2c(NC(=O)C3CCCCO3)cc(-c3ccc4ncnn4c3)cc21 (stereo not shown) [Compound I-1803]
- IC50: 10000 to 100000 nM

SMILES: O=C(Nc1cccc2c1C(c1ccccc1)NC2=O)c1cc(F)cc(C(F)(F)F)c1 (stereo not shown) [Compound I-1805]
- IC50: 1000 to 10000 nM

SMILES: NC(=O)Cn1nc(Nc2cc(-c3ccc4ncnn4c3)cc3c2C(c2cc(F)ccc2Cl)NC3=O)c2ccccc21 (stereo not shown) [Compound I-1806]
- IC50: 1000 to 10000 nM

SMILES: O=C1NC(c2cc(F)ccc2Cl)c2c(Nc3nn(CCO)c4ccccc34)cc(-c3ccc4ncnn4c3)cc21 (stereo not shown) [Compound I-1807]
- IC50: 1000 to 10000 nM

SMILES: N#CCn1nc(Nc2cc(-c3ccc4ncnn4c3)cc3c2C(c2cc(F)ccc2Cl)NC3=O)c2ccccc21 (stereo not shown) [Compound I-1808]
- IC50: 1000 to 10000 nM

SMILES: O=C1NC(c2cc(F)ccc2Cl)c2c(Nc3nn(C4CC4)c4ccccc34)cc(-c3ccc4ncnn4c3)cc21 (stereo not shown) [Compound I-1809]
- IC50: 1000 to 10000 nM

SMILES: O=C1NC(c2cc(F)ccc2Cl)c2c(NC(=O)N3CCOC(C(F)(F)F)C3)cc(Br)cc21 (stereo not shown) [Compound I-1810]
- IC50: 1000 to 10000 nM

SMILES: NC1(C(=O)Nc2cc(-c3ccc4ncnn4c3)cc3c2C(c2cc(F)ccc2Cl)NC3=O)CCCC1 (stereo not shown) [Compound I-1812]
- IC50: 10000 to 100000 nM

SMILES: O=C1NC(c2cc(F)ccc2Cl)c2c(NC(=O)C3(O)CCCC3)cc(-c3ccc4ncnn4c3)cc21 (stereo not shown) [Compound I-1813]
- IC50: 10000 to 100000 nM

SMILES: O=C1NC(c2cc(F)ccc2Cl)c2c(NC(=O)C3CCCOC3)cc(-c3ccc4ncnn4c3)cc21 (stereo not shown) [Compound I-1814]
- IC50: 10000 to 100000 nM

SMILES: CN1CCC(C2NC(=O)c3cccc(NC(=O)c4cc(F)cc(C(F)(F)F)c4)c32)CC1 (stereo not shown) [Compound I-1815]
- IC50: 10000 to 100000 nM

SMILES: CC(=O)N1CCC(C2NC(=O)c3cccc(NC(=O)c4cc(F)cc(C(F)(F)F)c4)c32)CC1 (stereo not shown) [Compound I-1818]
- IC50: 10000 to 100000 nM

SMILES: O=C1NC(c2cc(F)ccc2Cl)c2c(NC(=O)C3(c4cc(F)ccc4F)CCCC3)cc(Br)cc21 (stereo not shown) [Compound I-1819]
- IC50: 10000 to 100000 nM

SMILES: O=C(Nc1cccc2c1C(C1CCCCC1O)NC2=O)c1cc(F)cc(C(F)(F)F)c1 (stereo not shown) [Compound I-1820]
- IC50: 10000 to 100000 nM

SMILES: O=C1NC(c2cc(F)ccc2Cl)c2c(NC(=O)C3CCOCC3)cc(-c3ccc4ncnn4c3)cc21 (stereo not shown) [Compound I-1821]
- IC50: 10000 to 100000 nM

SMILES: N#Cc1cc(-c2cc(NC(=O)c3cc(F)cc(C(F)(F)F)c3)c3c(c2)C(=O)NC3c2cc(F)ccc2Cl)cn2ncnc12 (stereo not shown) [Compound I-1822]
- IC50: ≤ 100 nM

SMILES: O=C(Nc1cc(-c2cn(C(F)F)cn2)cc2c1C(c1cc(F)ccc1Cl)NC2=O)c1cc(F)cc(C(F)(F)F)c1 (stereo not shown) [Compound I-1823]
- IC50: ≤ 100 nM

SMILES: O=C(Nc1cc(-c2cnn3ncnc3c2)cc2c1C(c1cc(F)ccc1Cl)NC2=O)c1cc(F)cc(C(F)(F)F)c1 (stereo not shown) [Compound I-1824]
- IC50: ≤ 100 nM

SMILES: Cc1c(-c2cc(NC(=O)c3cc(F)cc(C(F)(F)F)c3)c3c(c2)C(=O)NC3c2cc(F)ccc2Cl)ccc2ncnn12 (stereo not shown) [Compound I-1825]
- IC50: ≤ 100 nM

SMILES: N#Cc1nn(C(F)F)cc1-c1cc(NC(=O)c2cc(F)cc(C(F)(F)F)c2)c2c(c1)C(=O)NC2c1cc(F)ccc1Cl (stereo not shown) [Compound I-1826]
- IC50: ≤ 100 nM

SMILES: Cc1cc2ncnn2cc1-c1cc(NC(=O)c2cc(F)cc(C(F)(F)F)c2)c2c(c1)C(=O)NC2c1cc(F)ccc1Cl (stereo not shown) [Compound I-1827]
- IC50: ≤ 100 nM

SMILES: O=C(Nc1cc(-c2cc3ncnn3cc2F)cc2c1C(c1cc(F)ccc1Cl)NC2=O)c1cc(F)cc(C(F)(F)F)c1 (stereo not shown) [Compound I-1828]
- IC50: ≤ 100 nM

SMILES: O=C1NC(c2cc(F)ccc2Cl)c2c(NC(=O)C3CCCO3)cc(-c3ccc4ncnn4c3)cc21 (stereo not shown) [Compound I-1831]
- IC50: 10000 to 100000 nM

SMILES: O=C(Nc1cccc2c1C(C1CNC1)NC2=O)c1cc(F)cc(C(F)(F)F)c1 (stereo not shown) [Compound I-1833]
- IC50: 10000 to 100000 nM

SMILES: N#CC(C(=O)Nc1cc(-c2ccc3ncnn3c2)cc2c1C(c1cc(F)ccc1Cl)NC2=O)c1ccccc1 (stereo not shown) [Compound I-1834]
- IC50: 1000 to 10000 nM

SMILES: O=C(Nc1cccc2c1C(C1CCC(O)CC1)NC2=O)c1cc(F)cc(C(F)(F)F)c1 (stereo not shown) [Compound I-1835]
- IC50: 10000 to 100000 nM

SMILES: CC(C#N)n1cc(-c2cc(NC(=O)c3cc(F)cc(C(F)(F)F)c3)c3c(c2)C(=O)NC3c2cc(F)ccc2Cl)cn1 (stereo not shown) [Compound I-1837]
- IC50: ≤ 100 nM

SMILES: N#Cc1cnc2cc(F)c(-c3cc(NC(=O)c4cc(F)cc(C(F)(F)F)c4)c4c(c3)C(=O)NC4c3cc(F)ccc3Cl)cn12 (stereo not shown) [Compound I-1838]
- IC50: ≤ 100 nM

SMILES: Cn1nc(C(F)F)cc1-c1cc(NC(=O)c2cc(F)cc(C(F)(F)F)c2)c2c(c1)C(=O)NC2c1cc(F)ccc1Cl (stereo not shown) [Compound I-1839]
- IC50: ≤ 100 nM

SMILES: O=C(Nc1cc(-c2ccc3nnc(C(F)F)n3c2)cc2c1C(c1cc(F)ccc1Cl)NC2=O)c1cc(F)cc(C(F)(F)F)c1 (stereo not shown) [Compound I-1840]
- IC50: ≤ 100 nM

SMILES: Cn1nc2ccccc2c1Nc1cc(-c2ccc3ncnn3c2)cc2c1C(c1cc(F)ccc1Cl)NC2=O (stereo not shown) [Compound I-1841]
- IC50: 10000 to 100000 nM

SMILES: CNC(=O)c1cc(-c2ccc3ncnn3c2)cc2c1C(c1cc(F)ccc1Cl)NC2=O (stereo not shown) [Compound I-1846]
- IC50: 10000 to 100000 nM

SMILES: O=C1NC(c2cc(F)ccc2Cl)c2c(CO)cc(-c3ccc4ncnn4c3)cc21 (stereo not shown) [Compound I-1851]
- IC50: 10000 to 100000 nM

SMILES: O=C1NC(c2cc(F)ccc2Cl)c2c(NC3CCc4ccccc43)cc(Br)cc21 (stereo not shown) [Compound I-1852]
- IC50: 10000 to 100000 nM

SMILES: N#Cc1cnc2c(F)cc(-c3cc(NC(=O)c4cc(F)cc(C(F)(F)F)c4)c4c(c3)C(=O)N[C@@H]4c3cc(F)ccc3Cl)cn12 [Compound I-1855]
- IC50: 500 to 1000 nM

SMILES: N#Cc1cnc2c(F)cc(-c3cc(NC(=O)c4cc(F)cc(C(F)(F)F)c4)c4c(c3)C(=O)N[C@H]4c3cc(F)ccc3Cl)cn12 [Compound I-1856]
- IC50: ≤ 100 nM

SMILES: CN(C)C(=O)c1cc(-c2ccc3ncnn3c2)cc2c1C(c1cc(F)ccc1Cl)NC2=O (stereo not shown) [Compound I-1857]
- IC50: 10000 to 100000 nM

SMILES: N#Cc1cnc2ncc(-c3cc(NC(=O)c4cc(F)cc(C(F)(F)F)c4)c4c(c3)C(=O)N[C@@H]4c3cc(F)ccc3Cl)cn12 [Compound I-1858]
- IC50: 500 to 1000 nM

SMILES: N#Cc1cnc2ncc(-c3cc(NC(=O)c4cc(F)cc(C(F)(F)F)c4)c4c(c3)C(=O)N[C@H]4c3cc(F)ccc3Cl)cn12 [Compound I-1859]
- IC50: ≤ 100 nM

SMILES: O=C(Nc1cc(-c2ccc(=O)n(C(F)F)c2)cc2c1[C@@H](c1cc(F)ccc1Cl)NC2=O)c1cc(F)cc(C(F)(F)F)c1 [Compound I-1860]
- IC50: 1000 to 10000 nM

SMILES: O=C(Nc1cc(-c2ccc(=O)n(C(F)F)c2)cc2c1[C@H](c1cc(F)ccc1Cl)NC2=O)c1cc(F)cc(C(F)(F)F)c1 [Compound I-1861]
- IC50: ≤ 100 nM

SMILES: N#Cc1c(-c2cc(NC(=O)c3cc(F)cc(C(F)(F)F)c3)c3c(c2)C(=O)NC3c2cc(F)ccc2Cl)cnn1C(F)F (stereo not shown) [Compound I-1862]
- IC50: ≤ 100 nM

SMILES: O=C(Nc1cc(-c2cnn(C(F)F)c2)cc2c1C(c1cc(F)ccc1Cl)NC2=O)c1cc(F)cc(Cl)c1 (stereo not shown) [Compound I-1863]
- IC50: ≤ 100 nM

SMILES: O=C(Nc1cc(-c2ccc3nc(C(F)F)cn3c2)cc2c1C(c1cc(F)ccc1Cl)NC2=O)c1cc(F)cc(C(F)(F)F)c1 (stereo not shown) [Compound I-1864]
- IC50: ≤ 100 nM

SMILES: Cn1nc(C(F)(F)F)cc1-c1cc(NC(=O)c2cc(F)cc(C(F)(F)F)c2)c2c(c1)C(=O)NC2c1cc(F)ccc1Cl (stereo not shown) [Compound I-1865]
- IC50: ≤ 100 nM

SMILES: O=C(Nc1cc(-c2ccc3ncc(C(F)F)n3c2)cc2c1C(c1cc(F)ccc1Cl)NC2=O)c1cc(F)cc(C(F)(F)F)c1 (stereo not shown) [Compound I-1866]
- IC50: ≤ 100 nM

SMILES: O=C(Nc1cc(-c2cc3ncnn3cc2F)cc2c1[C@H](c1cc(F)ccc1Cl)NC2=O)c1cc(F)cc(C(F)(F)F)c1 [Compound I-1868]
- IC50: ≤ 100 nM

SMILES: O=C(Nc1cc(-c2ccc3ncc(F)n3c2)cc2c1[C@@H](c1cc(F)ccc1Cl)NC2=O)c1cc(F)cc(C(F)(F)F)c1 [Compound I-1869]
- IC50: 500 to 1000 nM

SMILES: O=C(Nc1cc(-c2ccc3ncc(F)n3c2)cc2c1[C@H](c1cc(F)ccc1Cl)NC2=O)c1cc(F)cc(C(F)(F)F)c1 [Compound I-1870]
- IC50: ≤ 100 nM

SMILES: O=C(Nc1cc(-c2cnn3ncnc3c2)cc2c1[C@@H](c1cc(F)ccc1Cl)NC2=O)c1cc(F)cc(C(F)(F)F)c1 [Compound I-1871]
- IC50: 100 to 500 nM

SMILES: O=C(Nc1cc(-c2cnn3ncnc3c2)cc2c1[C@H](c1cc(F)ccc1Cl)NC2=O)c1cc(F)cc(C(F)(F)F)c1 [Compound I-1872]
- IC50: ≤ 100 nM

SMILES: Cc1cc2ncnn2cc1-c1cc(NC(=O)c2cc(F)cc(C(F)(F)F)c2)c2c(c1)C(=O)N[C@@H]2c1cc(F)ccc1Cl [Compound I-1873]
- IC50: 1000 to 10000 nM

SMILES: Cc1cc2ncnn2cc1-c1cc(NC(=O)c2cc(F)cc(C(F)(F)F)c2)c2c(c1)C(=O)N[C@H]2c1cc(F)ccc1Cl [Compound I-1874]
- IC50: ≤ 100 nM

SMILES: Cc1c(-c2cc(NC(=O)c3cc(F)cc(C(F)(F)F)c3)c3c(c2)C(=O)N[C@@H]3c2cc(F)ccc2Cl)ccc2ncnn12 [Compound I-1875]
- IC50: 1000 to 10000 nM

SMILES: Cc1c(-c2cc(NC(=O)c3cc(F)cc(C(F)(F)F)c3)c3c(c2)C(=O)N[C@H]3c2cc(F)ccc2Cl)ccc2ncnn12 [Compound I-1876]
- IC50: ≤ 100 nM

SMILES: O=C(Nc1cc(-c2cn3c(F)cnc3cn2)cc2c1[C@@H](c1cc(F)ccc1Cl)NC2=O)c1cc(F)cc(C(F)(F)F)c1 [Compound I-1877]
- IC50: 1000 to 10000 nM

SMILES: O=C(Nc1cc(-c2cn3c(F)cnc3cn2)cc2c1[C@H](c1cc(F)ccc1Cl)NC2=O)c1cc(F)cc(C(F)(F)F)c1 [Compound I-1878]
- IC50: ≤ 100 nM
